Article PMC6366404, “4-(3-Nitrophenyl)thiazol-2-ylhydrazone derivatives as antioxidants and selective hMAO-B inhibitors: synthesis, biological activity and computational analysis” (Journal of Enzyme Inhibition and Medicinal Chemistry, 2019)

What was measured:
hMAO-B [1] = biological target: T1, hMAO-B (Homo sapiens, UniProt P27338); assay: hMAO-B inhibition, IC50 determination (kynuramine fluorescence); format: biochemical
T1 sequence (P27338 1-520): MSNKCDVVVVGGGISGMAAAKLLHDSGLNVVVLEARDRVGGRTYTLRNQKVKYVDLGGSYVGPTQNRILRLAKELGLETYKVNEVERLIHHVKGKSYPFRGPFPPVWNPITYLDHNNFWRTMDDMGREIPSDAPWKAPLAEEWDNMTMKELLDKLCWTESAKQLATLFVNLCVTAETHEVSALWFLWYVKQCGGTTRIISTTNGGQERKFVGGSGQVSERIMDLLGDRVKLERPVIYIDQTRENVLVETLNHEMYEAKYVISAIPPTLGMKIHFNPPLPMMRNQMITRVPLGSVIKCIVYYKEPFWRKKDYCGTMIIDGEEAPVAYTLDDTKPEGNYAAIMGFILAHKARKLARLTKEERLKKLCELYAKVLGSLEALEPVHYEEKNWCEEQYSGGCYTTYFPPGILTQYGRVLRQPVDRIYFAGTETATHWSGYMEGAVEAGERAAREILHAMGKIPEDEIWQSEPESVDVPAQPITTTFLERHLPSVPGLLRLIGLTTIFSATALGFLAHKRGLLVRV
Experimental: The procedure for the measurement of IC50 values for the inhibition of MAO has been reported. The enzyme reactions were prepared to a volume of […] in potassium phosphate buffer at pH 7.4 (100 mM, made isotonic with KCl) and contained kynuramine (50 μM) and the test inhibitors (0.003–100 µM). Stock solutions of the test inhibitors were prepared in DMSO and added to the reactions to yield 4% DMSO. The enzyme reactions were initiated with the addition of recombinant hMAO-A (0.0075 mg protein/mL) or hMAO-B (0.015 mg protein/mL) and incubated for 20 min at 37 °C. At endpoint, the reactions were terminated with 80 µL sodium hydroxide (2N) and the fluorescence of 4-hydroxyquinoline, the oxidation product of kynuramine, was measured (λex = 310; λem = 400 nm)[33]. 4-Hydroxyquinoline was quantified with a calibration curve (0.047–1.56 μM) and the rate of 4-hydroxyquinoline formation was fitted to the one site competition model of the Prism 5 software package (GraphPad). From the resulting sigmoidal plots, the IC50 values were estimated. All enzyme reactions were carried out in triplicate and IC50 values are given as the mean ± standard deviation (SD).

hMAO-B [2] = biological target: T1, hMAO-B; assay: Lineweaver-Burk plots, mode of inhibition and Ki; format: biochemical
Experimental: To construct Lineweaver–Burk plots, the enzyme reactions were carried out to a volume of 500 µL and the concentration of MAO-B was 0.015 mg protein/mL. All enzyme reactions and activity measurements were carried out as described above for the dialysis experiments. The first plot was constructed in the absence of inhibitor, while the remaining five plots were constructed in the presence of the following concentrations: ¼ × IC50, ½ × IC50, ¾ × IC50, 1 × IC50 and 1¼ × IC50. For each line, kynuramine was used at concentrations of 15–250 μM. The Ki value was estimated from a plot of the slopes of the Lineweaver–Burk plots versus inhibitor concentration (x-axis intercept equals –Ki).
To provide further support for the reversibility of MAO-B inhibition by compounds 4 and 37, a set of Lineweaver–Burk plots was constructed for each inhibitor at the following inhibitor concentrations: ¼ × IC50, ½ × IC50, ¾ × IC50, 1 × IC50, and 1¼ × IC50. The substrate, kynuramine, was used at 15–250 µM for each line. […] The lines of the plots intersect on the y-axis and a replot of the slopes versus inhibitor concentration yields a linear line, from which the enzyme-inhibitor dissociation constant (Ki) was estimated (Ki = −x-axis intercept).

[3] = Cupric ion reducing activity (CUPRAC)
[4] = ABTS radical cation scavenging activity
[5] = Metal chelating activity on ferrous ions; details: ferrozine
[6] = FRAP (ferric reducing antioxidant power) assay

## CC(=NNc1nc(-c2cccc([N+](=O)[O-])c2)cs1)c1cccs1 [Compound 4, 1-(4-(3-Nitrophenyl)thiazol-2-yl)-2-(1-(thiophen-2-yl)ethylidene)hydrazine]
hMAO-B [1]
  IC50: 0.0018 µM
hMAO-B [1]; ratio (IC50 hMAO-A)/(IC50 hMAO-B)
  Selectivity index (SI) for the MAO-B isoform: 922
hMAO-B [2]
  Ki: 0.0026 µM
hMAO-B [2]; Lineweaver-Burk plots
  Mode of MAO-B inhibition: competitive
[3]
  EC50: 520 ± 20 µM
[4]
  IC50: 1040 ± 10 µM
[5]
  IC50: > 5000 µM
[6]
  EC50: 530 ± 20 µM
